# Key:
# [1] = tested on: SU-DHL4 target cell lines; experiment: Antibody-dependent cell-mediated cytotoxicity (ADCC) assay; type: cell-based; settings: SU-DHL4 target cells
# Protocol: The efficacies of Rituximab and Rituximab-Mod were compared based on Binding to CD20-expressing target cells and antibody-dependent cell-mediated cytotoxicity [ADCC] assays.
# The binding of Rituximab-Mod and rituximab was assessed on SU-DHL4 cell lines with high (1,000,000) CD20 receptor copy numbers. […] The ability of Rituximab-Mod and rituximab to mediate ADCC was assessed using SU-DHL4 target cell lines. The potency of Rituximab-Mod was higher than that of rituximab.
# [2] = tested on: non-amyloid producer Escherichia coli strain RA-74; type: cell-based
# [3] = tested on: amyloid producing Escherichia coli strain VT-156; type: cell-based
# microbial amyloid = type: cell-based, Escherichia coli
# beta-amyloid (Aβ) = experiment: Amount of Aβ in the brain of Tg2576 mice injected with S. aureus bacterial DNA, with or without DNase (sandwich ELISA); type: in vivo, mice (line Tg2576)
# Excerpt: The effect on the model of increased gut permeability in mice was studied. Increased gut permeability allows increased levels of bacterial DNA in the blood circulation, leading to the increase in the level of beta amyloid (Bala, S. et al., 2014; DiBiagio, J. R. et al., 2016). DNAse prevents the appearance of a thermostable protein formed by the extracellular DNA.
# Hemizygous transgenic mice expressing familial Alzheimer's disease mutant human (line Tg2576, Hsiao et al., 1996). A total of 70 male mice were used. To identify beta-amyloid (AB) amount, one quarter brain from each animal was homogenized in 70% formic acid at a weight: volume ratio of 100 mg/ml. The homogenate was sonicated for 2 min and centrifuged at 100,000 g for 1 h. After centrifugation, the supernatant fraction was removed and neutralized with 19 vol of Tris-phosphate buffer. Samples were analyzed by a modified sandwich ELISA that detects total AB. To detect human Aβ, aliquots of homogenate were added to Nunc Maxisorb plates coated with monoclonal antibody 6E10 (Senetek) capture antibody. After incubation at 4° C. overnight, human Ab was detected by monoclonal antibody 4G8 (Senetek) conjugated to horseradish peroxidase (HRP). After washing with PBS containing 0.05% Tween 20, the bound peroxidase was detected by the TMB peroxidase kit (Kirkegaard & Perry). Plates were read at 450 nm in a standard plate reader, and unknowns were quantified by comparison to known quantities of freshly dissolved Ab40 (Bachem).
# Animals were injected daily, with increasing concentrations of S. aureus bacterial DNA. Control animals were injected with sterile water. DNase (2000 Kunitz units) was administered orally or by IV on day 1.
# HSV-1 = type: cell-based, human Herpes Virus 1
Compound,"Bacterial OD (570 nm), Escherichia coli strain RA-74 [2]",Bacterial OD (570 nm) [3],decrease in CR binding (microbial amyloid),further results
rituximab,,,,EC50 of target cell killing (ADCC) [1]: ~0.01 µg/mL
CCN(CC)CCCC(C)Nc1c2ccc(Cl)cc2nc2ccc(OC)cc12 (stereo not shown) [Quinacrine],1.406,0.657,about 40%,
DNase,,,,Total Aβ in the brain (beta-amyloid (Aβ); DNA 5 mcg + DNase 5 mcg IV): 94 ± 23 pmol/mg; Total Aβ in the brain (beta-amyloid (Aβ); DNA 5 mcg + DNase 5 mcg PO): 103 ± 35 pmol/mg; Total Aβ in the brain (beta-amyloid (Aβ); DNA 20 mcg + DNase 5 mcg IV): 73 ± 12 pmol/mg; Total Aβ in the brain (beta-amyloid (Aβ); DNA 20 mcg + DNase 5 mcg PO): 95 ± 12 pmol/mg
Pentosan polysulfate,1.416,,about 40%,"Bacterial OD (570 nm), Escherichia coli strain VT-56 [3]: 0.547"
C=CC[C@@H]1/C=C(\C)C[C@H](C)C[C@H](OC)[C@H]2O[C@@](O)(C(=O)C(=O)N3CCCC[C@H]3C(=O)O[C@H](/C(C)=C/[C@@H]3CC[C@@H](O)[C@H](OC)C3)[C@H](C)[C@@H](O)CC1=O)[C@H](C)C[C@@H]2OC [Tacrolimus],1.382,0.678,about 40%,"Number (%) of unaltered cells, Herpes virus of type I (HSV-1): 30%; antiviral activity against the herpes virus (type I) (HSV-1): has the antiviral activity"

# — patent publication US12535491B2, “Vaccine comprising protein-targeted (PT) extracellular DNA isolated from bacterial matrix” (priority 2018, dated 2026)
